Laboratory results reported in ChEMBL document CHEMBL1153042, “Fatty acid amide hydrolase inhibitors. Surprising selectivity of chiral azetidine ureas” (Bioorg Med Chem Lett, 2009).

Legend:
[1] = target: T1, Fatty-acid amide hydrolase 1 (Homo sapiens, UniProt O00519); test: Inhibition of human FAAH incubated 3 hrs prior to addition of arachidonyl-amino-methyl-coumarin amide
T1 sequence (O00519 whole entry): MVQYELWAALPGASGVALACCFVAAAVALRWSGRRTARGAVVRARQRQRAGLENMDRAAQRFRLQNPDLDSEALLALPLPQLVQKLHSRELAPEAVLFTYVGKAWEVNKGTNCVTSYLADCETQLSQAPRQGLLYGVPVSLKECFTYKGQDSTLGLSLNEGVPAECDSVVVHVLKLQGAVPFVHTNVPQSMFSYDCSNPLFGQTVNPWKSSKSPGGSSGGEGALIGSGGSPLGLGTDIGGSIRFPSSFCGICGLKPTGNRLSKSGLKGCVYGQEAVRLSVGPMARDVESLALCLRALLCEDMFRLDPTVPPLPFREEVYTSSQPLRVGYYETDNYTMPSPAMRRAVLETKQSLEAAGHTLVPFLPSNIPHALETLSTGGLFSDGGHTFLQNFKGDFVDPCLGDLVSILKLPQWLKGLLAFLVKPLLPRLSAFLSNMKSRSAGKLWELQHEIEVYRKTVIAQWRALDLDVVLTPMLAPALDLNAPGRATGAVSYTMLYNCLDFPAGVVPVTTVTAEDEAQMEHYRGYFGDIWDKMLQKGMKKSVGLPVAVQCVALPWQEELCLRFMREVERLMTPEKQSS

[2] = target: T2, Fatty-acid amide hydrolase 1 (Rattus norvegicus, UniProt P97612); test: Inhibition of rat FAAH incubated 3 hrs prior to addition of arachidonyl-amino-methyl-coumarin amide
T2 sequence (P97612 whole entry): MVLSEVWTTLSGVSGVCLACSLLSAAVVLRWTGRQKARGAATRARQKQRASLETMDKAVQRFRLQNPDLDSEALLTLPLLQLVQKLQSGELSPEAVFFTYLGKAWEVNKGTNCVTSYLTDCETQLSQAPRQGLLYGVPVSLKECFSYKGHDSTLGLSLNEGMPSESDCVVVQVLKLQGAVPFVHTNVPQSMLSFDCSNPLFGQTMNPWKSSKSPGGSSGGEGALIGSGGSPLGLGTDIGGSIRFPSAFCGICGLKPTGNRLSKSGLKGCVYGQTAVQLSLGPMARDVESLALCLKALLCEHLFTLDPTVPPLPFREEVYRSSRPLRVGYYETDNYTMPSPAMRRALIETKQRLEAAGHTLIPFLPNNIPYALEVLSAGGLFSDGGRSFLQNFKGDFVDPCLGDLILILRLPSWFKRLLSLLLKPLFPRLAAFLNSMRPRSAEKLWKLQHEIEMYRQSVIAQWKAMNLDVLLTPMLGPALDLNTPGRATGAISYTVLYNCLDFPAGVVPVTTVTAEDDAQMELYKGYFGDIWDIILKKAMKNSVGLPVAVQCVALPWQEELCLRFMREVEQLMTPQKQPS

[3] = target: T2, Fatty-acid amide hydrolase 1; test: Inhibition of rat FAAH incubated 1 hr prior to addition of arachidonyl-amino-methyl-coumarin amide
Cannabinoid receptor 1 = Cannabinoid receptor 1 (Homo sapiens, UniProt P21554); test: Displacement of [3H]SR141716A from human CB1 receptor
Chain of Cannabinoid receptor 1 (P21554 whole entry): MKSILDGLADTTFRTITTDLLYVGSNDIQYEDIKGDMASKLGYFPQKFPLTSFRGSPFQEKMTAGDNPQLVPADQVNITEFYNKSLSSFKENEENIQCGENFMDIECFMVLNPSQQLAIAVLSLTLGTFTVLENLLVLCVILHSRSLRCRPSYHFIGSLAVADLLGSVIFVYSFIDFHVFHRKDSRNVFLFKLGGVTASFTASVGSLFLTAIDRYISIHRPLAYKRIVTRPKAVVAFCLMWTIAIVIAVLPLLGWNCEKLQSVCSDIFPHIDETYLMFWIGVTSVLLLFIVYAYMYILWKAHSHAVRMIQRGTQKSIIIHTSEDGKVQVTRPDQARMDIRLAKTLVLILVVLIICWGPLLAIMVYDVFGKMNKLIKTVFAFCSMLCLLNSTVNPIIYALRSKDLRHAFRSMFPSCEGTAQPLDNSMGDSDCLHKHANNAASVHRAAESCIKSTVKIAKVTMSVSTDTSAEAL

Cannabinoid receptor 2 = Cannabinoid receptor 2 (Homo sapiens, UniProt P34972); test: Displacement of [3H]CP-55940 from human CB2 receptor
Chain of Cannabinoid receptor 2 (P34972 whole entry): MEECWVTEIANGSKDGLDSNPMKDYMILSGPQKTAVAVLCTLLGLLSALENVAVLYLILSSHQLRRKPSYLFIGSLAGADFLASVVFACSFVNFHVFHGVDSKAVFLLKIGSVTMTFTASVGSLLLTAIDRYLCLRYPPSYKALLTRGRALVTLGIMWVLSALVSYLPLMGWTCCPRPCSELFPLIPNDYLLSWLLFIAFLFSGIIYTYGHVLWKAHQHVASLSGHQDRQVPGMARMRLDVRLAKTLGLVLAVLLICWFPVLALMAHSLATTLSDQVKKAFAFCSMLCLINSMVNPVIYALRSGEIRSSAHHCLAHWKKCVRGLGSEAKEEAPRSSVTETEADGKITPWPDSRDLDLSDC

[4] = target: T1, Fatty-acid amide hydrolase 1; test: Inhibition of human FAAH incubated 1 hr prior to addition of arachidonyl-amino-methyl-coumarin amide

| IC50 [1] [nM] | IC50 [2] [nM] | IC50 [3] [nM] | Ki (Cannabinoid receptor 1) [nM] | Ki (Cannabinoid receptor 2) [nM] | IC50 [4] [nM] | SMILES |
| --- | --- | --- | --- | --- | --- | --- |
| 78 | 531 | 1030 | 560 | 7190 | 140 | O=C(N1CCCCC1)N1CC(O[C@@H](c2ccc(Cl)cc2)c2cccnc2Cl)C1 |
| > 10000 | > 10000 | > 10000 | < 10 | 10900 | > 10000 | O=C(N1CCCCC1)N1CC(O[C@H](c2ccc(Cl)cc2)c2cccnc2Cl)C1 |
| 188 | – | – | < 10 | – | 291 | O=C(N1CCCCC1)N1CC(OC(c2ccc(Cl)cc2)c2cccnc2Cl)C1 (racemic) |
